# According to the SangsterLogP compilation:
# Assay: method code SF-AS, from DOI: 10.1016/j.ejmech.2011.01.053, PMID: 21334792
# Details: pH 7.4
row,SMILES,logD
1,CC(C)(C)OC(=O)N1CCCC1C(=O)O/N=C1\c2ccccc2-c2c1c(-n1ccnc1)nc1ccc(Br)cc21 (stereo not drawn),1.28
2,CCCCCC(=O)ON=C1c2ccccc2-c2c1c(C1C=CN=C1)nc1ccc(Br)cc21 (stereo not drawn),2.11
3,CCCC(=O)O/N=C1\c2ccccc2-c2c1c(-n1ccnc1)nc1ccc(Br)cc21,1.17
4,CC(C)(C)OC(=O)NC(Cc1cccc(F)c1)ON=C1c2ccccc2-c2c1c(N1CCN(c3ccccn3)CC1)nc1ccc(Br)cc21 (stereo not drawn),1.14
5,CN(C)C(=O)ON=C1c2ccccc2-c2c1c(N1CCN(c3ccccn3)CC1)nc1ccc(Br)cc21,2.34
6,CCCCCC(=O)ON=C1c2ccccc2-c2c1c(N1CCN(c3ccc[nH]3)CC1)nc1ccc(Br)cc21,2.06
7,CC(=O)ON=C1c2ccccc2-c2c1c(C1C=CN=C1)nc1ccc(Br)cc21 (stereo not drawn),1.11
8,CC(C)(C)C(=O)NC(C(=O)ON=C1c2ccccc2-c2c1c(N1CCN(c3ccccn3)CC1)nc1ccc(Br)cc21)C(C)(C)C (stereo not drawn),1.5
9,O=C(C=Cc1ccco1)ON=C1C2=C(c3ccccc31)c1c(Br)cccc1NC2N1CCN(c2ccccn2)CC1 (stereo not drawn),1.43
10,CCCCC(=O)ON=C1c2ccccc2-c2c1c(C1C=CN=C1)nc1ccc(Br)cc21 (stereo not drawn),1.64
11,CC(C)(C)OC(=O)NCC(=O)ON=C1c2ccccc2-c2c1c(N1CCN(c3ccccn3)CC1)nc1cccc(Br)c21,0.7
12,CCCCCCC(=O)ON=C1c2ccccc2-c2c1c(C1C=CN=C1)nc1ccc(Br)cc21 (stereo not drawn),1.51
13,CC(=O)NCC(=O)ON=C1c2ccccc2-c2c1c(N1CCN(c3ccccn3)CC1)nc1ccc(Br)cc21,1.18
14,ON=C1c2ccccc2-c2c1c(C1C=CN=C1)nc1ccc(Br)cc21 (stereo not drawn),0.23
15,CCC(=O)ON=C1c2ccccc2-c2c1c(N1CCN(c3ccccn3)CC1)nc1ccc(Br)cc21,2.65
16,CC1(OC(=O)CC(F)(F)F)c2ccccc2-c2c1c(-n1ccnc1)nc1ccc(Br)cc21 (stereo not drawn),1.83
17,CC1(O)c2ccccc2-c2c1c(-n1ccnc1)nc1ccc(Br)cc21 (stereo not drawn),1.73
18,O=C(CCCCBr)ON=C1c2ccccc2-c2c1c(N1CCN(c3ccccn3)CC1)nc1ccc(Br)cc21,1.47
